Test results as given in patent publication EP0425828A2, “Facteur thymique sérique for prevention and remedy of disorders of decrease in the number of blood corpuscles” (MITSUI TOATSU CHEMICALS, Inc., priority 1989, dated 1991).
Square brackets hold non-standard residues; d marks the D form. Peptide text beside a SMILES is read from it. pGlu = O=C1CC[C@@H](C(=O)O)N1

Assays:
[1] = system: Wistar rats; assay: Toxicity test in rats, repeated subcutaneous administration; assay type: in vivo; conditions: 30 mg/kg s.c. for consecutive 21 days
Source text: (§1) Thus, the medicament of the present invention is a safe medicament of extremely low toxicity and can be administered for a long period of time.

[2] = system: ddy strain male mice; assay: Toxicity test in mice, repeated subcutaneous administration; assay type: in vivo; conditions: for toxicity: five ddy strain male mice of 5 weeks old
Source text: as §1

[3] = system: leucocytes in peripheral blood; assay: Effect on mice to which MMC was intraperitoneally administered: leucocyte count; assay type: in vivo, female ICR/JCL mice; conditions: MMC alone, 20 µg/0.1 ml i.p. once a day for 10 days
Method: Four groups each consisting of 6 female ICR/JCL mice of 5 weeks old were treated as follows: For the first group, 0.1 ml of physiological saline was intraperitoneally administered to the mice for consecutive 12 days. For the second group, FTS substance was subcutaneously administered once a day in an amount of 100 u.g for consecutive 12 days. For the third group, MMC was intraperitoneally administered once a day in an amount of 20 µg/0.1 ml for 10 days from the zero day to the 9th day of the experiment. For the fourth group, FTS substance was subcutaneously administered to the mice once a day in an amount of 100 µg for consecutive 12 days from 2 days before the administration of MMC, and for 10 days from the […] after the administration of FTS substance MMC was intraperitoneally administered once a day in an amount of 20 u.g/0.1 ml. After the administration of the anti-cancer agent, blood was collected on alternate days from oculus vein and the numbr of leucocytes in the blood was counted.

[4] = Effect on mice to which CPA was intraperitoneally administered: body weight; assay type: in vivo, male C3H/HeN mice; conditions: CPA alone
Method: (§2) Several groups each consisting of 10 male C3H/HeN mice of 8 weeks old were prepared. For the first group, 0.2 ml of physiological saline was subcutaneously administered for consecutive 12 days from 2 days before the examination to the 9th day of the examination. For the second group, FTS substance was subcutaneously administered once a day in an amount of 100 iig/0.2 ml for consecutive 12 days. For the third group, CPA was intraperitoneally administered in an amount of 400 mg/kg once on the zero day of the examination. For the fourth group, an administration schedule combining the second group with the third group was applied to the mice. For the fifth group, CPA was intraperitoneally administered in an amount 200 mg/kg once on the zero day of the examination. For the sixth group, an administration schedule combining the second group with the fifth group was applied to the mice. For the seventh group, CPA was intraperitoneally administered in an amount of 100 mg/kg once on the zero day of the examination. For the eighth group, an administration schedule combining the second group with the seventh group to the mice. […]

[5] = system: leucocytes (WBC); assay: Effect on mice to which cyclophosphamide (CPA) was intraperitoneally administered: blood inspection, WBC; assay type: in vivo, male C3H/HeN mice; conditions: for WBC, mean value ± S.D.: 400 mg/kg of CPA alone i.p. once on day zero
Method: (§3) Several groups each consisting of 10 male C3H/HeN mice of 8 weeks old were prepared. For the first group, 0.2 ml of physiological saline was subcutaneously administered for consecutive 12 days from 2 days before the examination to the 9th day of the examination. For the second group, FTS substance was subcutaneously administered once a day in an amount of 100 iig/0.2 ml for consecutive 12 days. For the third group, CPA was intraperitoneally administered in an amount of 400 mg/kg once on the zero day of the examination. For the fourth group, an administration schedule combining the second group with the third group was applied to the mice. For the fifth group, CPA was intraperitoneally administered in an amount 200 mg/kg once on the zero day of the examination. For the sixth group, an administration schedule combining the second group with the fifth group was applied to the mice. For the seventh group, CPA was intraperitoneally administered in an amount of 100 mg/kg once on the zero day of the examination. For the eighth group, an administration schedule combining the second group with the seventh group to the mice. During the examination, blood was collected by cutting axillary artery on the days of examination (0, 3rd, 5th, 7th, 10th and 14th days) and subjected to a blood inspection to measure the number of leucocytes (WBC), the number of erythrocytes (RBC), the number of reticulocytes (RET), the number of platelets (PLT), the number of hemoglobin (HGB), hematocrit value (HCT), a mean corpuscular volume, a mean corpuscular hemoglobin and a mean corpuscular hemoglobin concentration.

[6] = system: reticulocytes (RET); assay: Effect on mice to which CPA was intraperitoneally administered: blood inspection, RET; assay type: in vivo, male C3H/HeN mice
Method: as §2

[7] = system: platelets (PLT); assay: Effect on mice to which CPA was intraperitoneally administered: blood inspection, PLT; assay type: in vivo, male C3H/HeN mice
Method: as §3

[8] = 7th day, 400mg/kg of CPA alone i.p. once on day zero

C[C@H](NC(=O)[C@@H]1CCC(=O)N1)C(=O)N[C@@H](CCCCN)C(=O)N[C@@H](CO)C(=O)N[C@@H](CCC(N)=O)C(=O)NCC(=O)NCC(=O)N[C@@H](CO)C(=O)N[C@@H](CC(N)=O)C(=O)O [effective ingredient, pGlu-Ala-Lys-Ser-Gln-Gly-Gly-Ser-Asn] ([pGlu]AKSQGGSN-OH)
abnormal symptoms in external behavior observation, biochemical diagnosis of sera and pathological anatomy ([1]; rats): no abnormal symptom was found | toxicity ([1]; ten Wistar rats of 5 weeks old): No toxicity was observed | toxicity ([2]; 50 mg/kg s.c. for consecutive 14 days): No toxicity was observed | abnormal symptoms by external check ([2]; 100 mg/kg s.c. every day for consecutive 14 days, mice): no abnormal symptom was found | toxicity ([2]; 100mg/kg s.c. for consecutive 14 days): No toxicity was observed

CO[C@@]12[C@H](COC(N)=O)C3=C(C(=O)C(C)=C(N)C3=O)N1C[C@@H]1N[C@@H]12 [MMC, mitomycine C]
number of leucocytes, lowest level as % of the maximum normal range [3]: about 40%

O=P1(N(CCCl)CCCl)NCCCO1 (stereo not drawn) [CPA, cyclophosphamide]
body weight change [4]: decrease in body weight | WBC, mean value ± S.D. ([5]; 3rd day): 11.6±2.1 x 10^2/mm^3 | WBC, mean value ± S.D. ([5]; 5th day): 4.2±1.0 x 10^2/mm^3 | WBC change ([5]; CPA alone 400 mg/kg, 200 mg/kg or 100 mg/kg, 3rd, 5th and 7th day, 5th day the minimum): considerably decreased | RET [6, 8]: 27.2±5.0 0/00 | RET change ([6]; CPA administered, 5th day the minimum): RET was decreased | PLT change ([7]; 400 mg/kg and 200 mg/kg of CPA, 7th day the minimum, recovered to the normal range on the 10th day): PLT was decreased | PLT ([7]; 5th day, 400 mg/kg of CPA alone i.p. once on day zero): 357±82 x 10^3/mm^3 | PLT [7, 8]: 214±73 x 10^3/mm^3
